According to patent publication US12679845B2, “Crystal form of triazolopyridine-substituted indazole compound and preparation method therefor” (SHENZHEN OPTIMUM BIOLOGICAL TECHNOLOGY CO., LTD, priority 2021, dated 2026):

Tests used:
[1] = Hygroscopicity study by dynamic vapor sorption (DVS); format: physicochemical; conditions: 25° C.; for Hygroscopic weight gain (ΔW): 80% RH compared to 0% RH
Protocol: • Instrument model: TA Discovery TGA 5500 thermal gravimetric analyzer • Test method: The sample (2 to 5 mg) is placed in a platinum pot and tested under the protection of 25 mL/min dry nitrogen, and the method is: heating from room temperature to 350° C. at a rate of 10° C./min. Dynamic Vapor Sorption (DVS) Method of the Present Disclosure • Instrument model: SMS (Surface Measurement Systems) dynamic vapor sorption analyzer • Test conditions: The sample (10 to 15 mg) is taken and placed in a DVS sample dish for testing.
The detailed DVS parameters are as follows: • Temperature: 25° C. • Equilibrium: dm/dt=0.002%/min (minimum: 10 min, maximum: 180 min) • Drying: drying for 120 min under 0% RH RH (%) Test Gradient: • 10% (0% RH to 90% RH, 90% RH to 0% RH) • 5% (90% RH to 95% RH, 95% RH to 90% RH) RH (%) • RH (%) test gradient range: 0% to 95%
SMS DVS Advantage dynamic vapor sorption analyzer
10 to 15 mg of the crystal form S of the compound of formula (I) was taken and placed in a DVS sample disk for testing.

[2] = Solid stability test (XRPD) under high temperature, high humidity and strong light; format: physicochemical
Source text: For samples placed under high temperature and high humidity conditions, the vial was sealed with aluminum foil punched with small holes to ensure that the samples could fully contact with the ambient air; for samples placed under strong light conditions, the vial was sealed with a threaded cap. The samples placed under different conditions were sampled and detected (XRPD) on day 5, day 10, and month 3, and the results were compared with the initial results on day 0.

[3] = test system: MMTV transcriptional activity (GR); experiment: MMTV_GR transcriptional activation activity assay, luciferase reporter gene in HeLa cells; format: cell-based
Source text: Experimental Example 2: In Vitro Assay of Compounds for Activation of MMTV Transcriptional Activity in Luciferase Reporter Gene Screening System
The mouse mammary tumor virus (MMTV) promoter contains specific binding sites that activate GR (GREs). To determine the activity of the compound, a reporter gene (luciferase) was inserted behind the MMTV promoter, and the structure was expressed in a stable manner in the genome of the HeLa cell line. The MMTV promoter was activated using the test compound to induce the luciferase expression, and its activity was detected by luminescence measurements.
The final DMSO experimental concentration was 0.1%.
MMTV_GR Transcriptional Activation Activity Assay
1) Cell inoculation: Fresh cells were inoculated into a 384-well white transparent bottom assay plate at 4×10^3 cells/30 μL/well and incubated in a 37° C., 5% CO2 incubator for 24 hours.
2) Compound preparation: The compound plate was configured before the start of the experiment. […]
4) 30 μL of Bright-Glo fluorescence assay reagent was transferred to the cell plate. […]
6) The fluorescence value was determined using an Envision plate reader. […]
The concentration curve of the test compound was plotted using the graphing software GraphPad Prism5, and the […] value was calculated.

[4] = In vivo PK study in Lewis female rats; conditions: rat, po 0.3 mg/kg, plasma
Protocol: The animals were weighed before administration, and the administration volume was calculated based on the body weight.
Approximately 0.2 mL of whole blood sample was collected at the specified time by jugular venipuncture (or other appropriate blood collection site), and the actual blood collection time was recorded in the experimental record. The acceptable error for the collection time point is ±1 minute within 1 hour after administration, and ±5% of the theoretical time for other time points. All blood samples were immediately transferred to labeled commercial centrifuge tubes containing K2-EDTA. After collection, the blood sample was centrifuged at 4° C., 3200 g for 10 minutes to aspirate the supernatant plasma, which was immediately placed in dry ice and then stored at −60° C. or lower for LC-MS/MS analysis.
The concentration of the test sample in plasma was determined by the LC-MS/MS bioanalytical method.

| SMILES | Classification of hygroscopicity ([1]; 80% RH) | Hygroscopic weight gain (ΔW) ([1]; listed as crystal form Q of the compound of formula (I)) [%] | Crystal form (XRPD) ([2]; Day 0, initial) | Crystal form (XRPD) ([2]; High humidity (room temperature/relative humidity: 92.5%, open), Day 5) | Crystal form (XRPD) ([2]; High humidity (room temperature/relative humidity: 92.5%, open), Day 10) | Crystal form (XRPD) ([2]; High humidity (room temperature/relative humidity: 92.5%, open), Month 3) | Crystal form (XRPD) ([2]; High temperature (60° C., open), Day 5) | Crystal form (XRPD) ([2]; High temperature (60° C., open), Day 10) | Crystal form (XRPD) ([2]; High temperature (60° C., open), Month 3) | Crystal form (XRPD) ([2]; Strong light (5000 lx, sealed), Day 5) | Crystal form (XRPD) ([2]; Strong light (5000 lx, sealed), Day 10) | Crystal form (XRPD) ([2]; Strong light (5000 lx, sealed), Month 3) | EC50 ([3]; Homo sapiens, 20 to 24 h, read-out: TA (MMTV transcriptional activation activity) EC50) [nM] | TA (MMTV transcriptional activation activity) Effect ([3]; positive control 1000 nM Dexamethasone) [%] | AUC [4] [µM·h] | Cmax [4] [nM] | Tmax [4] [h] | half-life [4] [min] | Hygroscopic weight gain (ΔW) [1] [%] |
| --- | --- | --- | --- | --- | --- | --- | --- | --- | --- | --- | --- | --- | --- | --- | --- | --- | --- | --- | --- |
| CC(C)[C@H](NC(=O)C(C)(F)F)[C@H](Oc1ccc2c(cnn2-c2ccc3nncn3c2)c1)c1ccccc1 [listing 1 of 2 here] | slightly hygroscopic | 0.21 | Crystal form Q | Crystal form Q | Crystal form Q | Crystal form Q | Crystal form Q | Crystal form Q | Crystal form Q | Crystal form Q | Crystal form Q | Crystal form Q | 7.72 | 63.86 | 3.15 | 361 | 4.5 | 214 |  |
| CC(C)[C@H](NC(=O)C(C)(F)F)[C@H](Oc1ccc2c(cnn2-c2ccc3nncn3c2)c1)c1ccccc1 [listing 2 of 2 here] |  |  |  |  |  |  |  |  |  |  |  |  |  |  |  |  |  |  | 0.6 |
